Patent US7820196B2, “Physiologically active agents containing vicinal dithioglycols and use thereof in various branches of economy” (priority 1999, dated 2010)
“And” between values parts separate entries of the source, which are not always exact repeats. Identical values can stand only once.

How the values were obtained:
broilers = assay: Example 5: broilers fed basic ration plus Unithiol; format: in vivo
Procedure: A full-ration mixed-fodder was checked for the absence of pathogens and used for feeding broilers. Thirty 15 days broilers were divided into one control and 4 experimental groups having 6 chickens each (3 male and 3 female chickens). Poultry were kept in a four-deck pen. The conditions of feeding such as the basic ration (BR) and the addition of Unithiol according to the protocol were as follows:
Experimental group 1: BR+1.3 mg of “Unithiol” per 1 kg of the body weight;
Experimental group 2: BR+1.7 mg of “Unithiol” per 1 kg of the body weight;
Experimental group 3: BR+2.1 mg of “Unithiol” per 1 kg of the body weight;
Experimental group 4: BR+2.5 mg of “Unithiol” per 1 kg of the body weight.
Feeding was performed in accordance with experimental protocol; broilers received water ad libitum; the experiment was carried out for 42 days.

[1] = system: participants (males and females) taking 1 l dark beer every evening; assay: Example 7: hangover and biochemical indices in participants taking dark beer with Unithiol or placebo; format: in vivo, human; details: for MDA (urine) / ALT (blood) / AST (blood) / SH-gr. (blood) / Triglycerides (blood) / Urate (blood) / Vit. A (blood) / Vit. E (blood): one value per participant
From the text: The tests were held upon the offer's proposal. The Moscow scientific and practical Center for the drug prophylactic of the Moscow health Administration was taken as the base for it.
The experiment was schemed as follows. The participants were taken from males and females of different age groups and different alcohol intake habits.
The control group remained as an intact one.
The experimental group—1—took in 1 l. of a dark beer of the “Klinskoie” type every evening from the X^th day till the X+13th day. That group took in the placebo every morning from the X+1th day till X+7th day, and every morning it took in from the X+8th day till X+14th day the solution of 250 mg of Unithiol in 100 g of drinking water.
The experimental group—2—took in 1 l. of a dark beer of the “Klinskoie” type every evening from the X^th day till the X+13th day. That group took in the solution of 250 mg of Unithiol in 100 g of drinking water every morning from the X+1th day till X+7th day, and every morning it took in the placebo from the X+8th day till X+14th day.
The measurements of the biochemical indices were taken in the mornings in every group, and in the control groups—after 30 minutes of placebo or Unithiol intake.
The following indices of the level of the per oxidation of lipids and the condition of the liver and the brain tissues were measured: • MDA—malondialdehyde • Triglycerides • Endogenous antioxidants: • Vit. A—vitamin A • Vit. E—vitamin E • Urate—serum urate • SH-gr.—SH-groups • Aminotransferase: • ALT—lanine aminotransferase • AST—aspartate aminotransferase

[2] = about 1.7 mg Unithiol per 1 kg of body weight in ration
[3] = day X+7, Experimental group 2: beer every evening, 250 mg Unithiol mornings X+1 to X+7
[4] = day X+14, Experimental group 1: beer every evening, 250 mg Unithiol mornings X+8 to X+14

O=S(=O)([O-])CC(S)CS.[Na+] (stereo not shown) [Unithiol, Sodium 2,3-Dimercaptopropane sulfonate]
feathering condition (broilers; Unithiol in ration): Feathering condition improvement
fodder consumption (broilers; Unithiol in ration): increased fodder consumption
average weight gain (broilers; [2]): up to 35.8 g per day
gain rate, % from that in the control group (broilers; [2]): 145.9%
growth stimulating effect (broilers; about 1.7 mg per 1 kg of body weight in ration, beginning from the 15th day): growth stimulating effect
level of cadmium, zinc, lead and copper in meat and liver, lower than control group (broilers; experimental groups, 1.3-2.5 mg Unithiol per kg body weight): about 1.5 times
time to full hangover alleviating after intake ([1]; 250 mg Unithiol in 100 g drinking water in the morning after 1 l dark beer in the evening): 5 to 10 min
toxic activity of ethanol and products of its incomplete oxidation (carbonyl compounds) to liver and brain tissue ([1]; Unithiol intake during alcohol intake): reduce almost to the whole extent
MDA (urine) ([1]; day X+2, Experimental group 2: 1 l dark beer every evening, 250 mg Unithiol mornings X+1 to X+7): 0.62 nM/ml and 0.45 nM/ml (2×) and 0.47 nM/ml and 0.43 nM/ml and 0.99 nM/ml and 0.67 nM/ml
MDA (urine) ([1]; day X+4, Experimental group 2: beer every evening, 250 mg Unithiol mornings X+1 to X+7): 0.60 nM/ml and 0.58 nM/ml (2×) and 0.42 nM/ml and 0.51 nM/ml and 0.88 nM/ml and 0.53 nM/ml
ALT (blood) [1, 3]: 61 nmol (sec. 1) and 50 nmol (sec. 1) (2×) and 37 nmol (sec. 1) and 46 nmol (sec. 1) and 190 nmol (sec. 1) and 39 nmol (sec. 1)
AST (blood) [1, 3]: 48 nmol (sec. 1) and 46 nmol (sec. 1) and 31 nmol (sec. 1) and 41 nmol (sec. 1) and 37 nmol (sec. 1) and 172 nmol (sec. 1) and 30 nmol (sec. 1)
MDA (urine) [1, 3]: 0.55 nM/ml and 0.43 nM/ml and 0.49 nM/ml and 0.42 nM/ml and 0.38 nM/ml and 0.89 nM/ml and 0.56 nM/ml
SH-gr. (blood) [1, 3]: 378 MKM and 389 MKM (2×) and 383 MKM and 380 MKM and 197 MKM and 354 MKM
Triglycerides (blood) [1, 3]: 0.80 mmoi/l and 0.59 mmoi/l and 0.44 mmoi/l and 0.43 mmoi/l and 0.41 mmoi/l and 1.73 mmoi/l and 0.42 mmoi/l
Urate (blood) [1, 3]: 268 MKM and 267 MKM and 311 MKM and 295 MKM and 280 MKM and 208 MKM and 279 MKM
Vit. A (blood) [1, 3]: 1.9 µg/mL and 2.2 µg/mL and 2.8 µg/mL and 2.3 µg/mL and 2.7 µg/mL and 0.6 µg/mL and 1.6 µg/mL
Vit. E (blood) [1, 3]: 2.6 µg/mL and 3.3 µg/mL and 3.1 µg/mL and 3.8 µg/mL and 3.2 µg/mL and 1.0 µg/mL and 2.4 µg/mL
MDA (urine) ([1]; day X+9, Experimental group 1: 1 l dark beer every evening, placebo mornings X+1 to X+7, 250 mg Unithiol mornings X+8 to X+14): 0.7 nM/ml and 1.0 nM/ml and 0.90 nM/ml and 0.82 nM/ml
MDA (urine) ([1]; day X+11, Experimental group 1: beer every evening, 250 mg Unithiol mornings X+8 to X+14): 0.63 nM/ml and 0.80 nM/ml and 0.72 nM/ml and 0.54 nM/ml
ALT (blood) [1, 4]: 52 nmol (sec. 1) and 58 nmol (sec. 1) and 45 nmol (sec. 1) and 42 nmol (sec. 1)
AST (blood) [1, 4]: 41 nmol (sec. 1) and 50 nmol (sec. 1) and 40 nmol (sec. 1) and 35 nmol (sec. 1)
MDA (urine) [1, 4]: 0.69 nM/ml and 0.82 nM/ml and 0.64 nM/ml and 0.53 nM/ml
SH-gr. (blood) [1, 4]: 384 MKM and 375 MKM and 389 MKM and 392 MKM
Triglycerides (blood) [1, 4]: 0.65 mmoi/l and 0.59 mmoi/l and 0.71 mmoi/l and 0.64 mmoi/l
Urate (blood) [1, 4]: 265 MKM and 253 MKM and 285 MKM and 279 MKM
Vit. A (blood) [1, 4]: 1.4 mcg/ml (2×) and 1.2 mcg/ml and 2.1 mcg/ml
Vit. E (blood) [1, 4]: 2.8 µg/mL and 2.1 µg/mL and 2.2 µg/mL and 1.7 µg/mL
